# Source: ChEMBL document CHEMBL1201862, “PubChem BioAssay data set” (2004)
# Activity calls are given as the source filed them.
# Legend:
# [1] = molecular target: Cytochrome P450 2D6 (Homo sapiens, UniProt P10635);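 further: CYP2D6 member of a cytochrome P450 panel assay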
# [2] = molecular target: Cytochrome P450 2C9 (Homo sapiens, UniProt P11712)
# [3] = molecular target: 1-phosphatidylinositol 4,5-bisphosphate phosphodiesterase gamma-1 (Homo sapiens, UniProt P19174); experiment: Counterscreen for inhibitors of phospholipase C isozymes (PLC-B3): Fluorescence-based biochemical high throughput dose response assay to identify inhibitors of phospholipase C isozymes (PLC-gamma1).
# Chain of 1-phosphatidylinositol 4,5-bisphosphate phosphodiesterase gamma-1 (P19174 whole entry): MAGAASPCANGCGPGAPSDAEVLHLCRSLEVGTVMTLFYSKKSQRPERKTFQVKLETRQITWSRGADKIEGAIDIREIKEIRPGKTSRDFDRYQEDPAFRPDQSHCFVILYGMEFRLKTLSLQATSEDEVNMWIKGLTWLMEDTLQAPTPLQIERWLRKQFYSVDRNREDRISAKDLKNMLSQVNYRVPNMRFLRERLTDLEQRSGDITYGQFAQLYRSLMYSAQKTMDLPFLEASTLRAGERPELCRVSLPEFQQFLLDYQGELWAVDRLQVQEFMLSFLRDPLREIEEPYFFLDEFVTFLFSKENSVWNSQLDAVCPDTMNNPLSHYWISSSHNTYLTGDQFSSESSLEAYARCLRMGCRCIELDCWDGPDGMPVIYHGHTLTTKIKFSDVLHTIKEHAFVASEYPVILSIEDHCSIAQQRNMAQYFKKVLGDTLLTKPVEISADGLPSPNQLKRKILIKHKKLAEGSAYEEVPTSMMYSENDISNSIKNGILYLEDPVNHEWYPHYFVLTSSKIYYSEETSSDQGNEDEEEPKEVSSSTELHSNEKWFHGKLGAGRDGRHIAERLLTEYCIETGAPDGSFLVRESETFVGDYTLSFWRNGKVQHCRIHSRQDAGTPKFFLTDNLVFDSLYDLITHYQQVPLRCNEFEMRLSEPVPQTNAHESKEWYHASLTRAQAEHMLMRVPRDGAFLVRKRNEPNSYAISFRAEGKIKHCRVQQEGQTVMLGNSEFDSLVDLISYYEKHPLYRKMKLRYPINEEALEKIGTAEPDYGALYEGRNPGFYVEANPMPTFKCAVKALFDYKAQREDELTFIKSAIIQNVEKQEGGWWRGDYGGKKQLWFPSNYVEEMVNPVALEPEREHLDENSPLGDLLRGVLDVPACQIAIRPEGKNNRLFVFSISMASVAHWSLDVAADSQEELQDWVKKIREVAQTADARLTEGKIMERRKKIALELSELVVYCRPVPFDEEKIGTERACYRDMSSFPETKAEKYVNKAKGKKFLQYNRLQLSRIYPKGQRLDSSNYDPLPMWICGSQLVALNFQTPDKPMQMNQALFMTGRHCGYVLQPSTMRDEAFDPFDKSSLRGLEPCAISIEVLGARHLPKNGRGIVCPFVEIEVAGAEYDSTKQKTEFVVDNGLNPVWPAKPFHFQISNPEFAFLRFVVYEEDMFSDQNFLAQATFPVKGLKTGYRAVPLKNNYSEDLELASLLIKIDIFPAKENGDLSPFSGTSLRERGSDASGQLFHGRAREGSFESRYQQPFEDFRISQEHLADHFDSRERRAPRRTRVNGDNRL
# [4] = molecular target: 1-phosphatidylinositol 4,5-bisphosphate phosphodiesterase beta-3 (Homo sapiens, UniProt Q01970); experiment: Fluorescence-based biochemical high throughput dose response assay to identify inhibitors of phospholipase C isozymes (PLC-B3).
# Chain of 1-phosphatidylinositol 4,5-bisphosphate phosphodiesterase beta-3 (Q01970 whole entry): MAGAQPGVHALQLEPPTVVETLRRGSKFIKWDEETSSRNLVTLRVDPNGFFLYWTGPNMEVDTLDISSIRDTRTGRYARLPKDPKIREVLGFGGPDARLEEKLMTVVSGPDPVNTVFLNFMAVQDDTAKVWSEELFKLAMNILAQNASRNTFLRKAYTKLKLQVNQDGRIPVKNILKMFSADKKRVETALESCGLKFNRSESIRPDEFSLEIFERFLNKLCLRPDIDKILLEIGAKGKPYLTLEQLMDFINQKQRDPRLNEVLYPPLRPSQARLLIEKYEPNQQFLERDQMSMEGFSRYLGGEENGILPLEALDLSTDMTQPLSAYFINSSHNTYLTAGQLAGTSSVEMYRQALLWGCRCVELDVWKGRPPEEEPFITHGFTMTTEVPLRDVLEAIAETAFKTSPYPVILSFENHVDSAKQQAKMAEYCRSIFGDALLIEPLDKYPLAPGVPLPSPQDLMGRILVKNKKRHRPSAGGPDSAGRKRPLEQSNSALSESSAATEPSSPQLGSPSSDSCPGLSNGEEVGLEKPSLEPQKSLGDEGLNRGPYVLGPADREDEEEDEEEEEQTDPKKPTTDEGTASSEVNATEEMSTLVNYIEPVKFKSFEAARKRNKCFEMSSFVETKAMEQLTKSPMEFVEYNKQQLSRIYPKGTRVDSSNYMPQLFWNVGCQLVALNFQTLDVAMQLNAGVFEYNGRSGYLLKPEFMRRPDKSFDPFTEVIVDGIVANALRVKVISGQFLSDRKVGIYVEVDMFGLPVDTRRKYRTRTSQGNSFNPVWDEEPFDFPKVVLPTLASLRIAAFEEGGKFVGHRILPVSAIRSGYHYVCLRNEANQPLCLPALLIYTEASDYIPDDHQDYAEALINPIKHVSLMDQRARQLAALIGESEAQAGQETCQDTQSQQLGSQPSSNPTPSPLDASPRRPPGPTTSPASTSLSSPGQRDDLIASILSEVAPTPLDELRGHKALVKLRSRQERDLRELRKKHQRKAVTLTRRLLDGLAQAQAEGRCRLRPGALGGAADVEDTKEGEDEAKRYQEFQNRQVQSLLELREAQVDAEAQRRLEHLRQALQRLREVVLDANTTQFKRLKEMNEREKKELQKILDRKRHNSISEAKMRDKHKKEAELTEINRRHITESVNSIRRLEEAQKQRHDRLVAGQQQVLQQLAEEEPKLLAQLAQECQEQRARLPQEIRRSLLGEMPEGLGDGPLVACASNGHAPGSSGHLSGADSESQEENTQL
# [5] = molecular target: Cytochrome P450 2C19 (Homo sapiens, UniProt P33261); experiment: Cytochrome panel assay with activity outcomes. Panel member name: p450-cyp2c19 Compounds with AC50 equal or less than 10 uM are considered active; format: functional; settings: read-out: AC50
# Chain of Cytochrome P450 2C19 (P33261 whole entry): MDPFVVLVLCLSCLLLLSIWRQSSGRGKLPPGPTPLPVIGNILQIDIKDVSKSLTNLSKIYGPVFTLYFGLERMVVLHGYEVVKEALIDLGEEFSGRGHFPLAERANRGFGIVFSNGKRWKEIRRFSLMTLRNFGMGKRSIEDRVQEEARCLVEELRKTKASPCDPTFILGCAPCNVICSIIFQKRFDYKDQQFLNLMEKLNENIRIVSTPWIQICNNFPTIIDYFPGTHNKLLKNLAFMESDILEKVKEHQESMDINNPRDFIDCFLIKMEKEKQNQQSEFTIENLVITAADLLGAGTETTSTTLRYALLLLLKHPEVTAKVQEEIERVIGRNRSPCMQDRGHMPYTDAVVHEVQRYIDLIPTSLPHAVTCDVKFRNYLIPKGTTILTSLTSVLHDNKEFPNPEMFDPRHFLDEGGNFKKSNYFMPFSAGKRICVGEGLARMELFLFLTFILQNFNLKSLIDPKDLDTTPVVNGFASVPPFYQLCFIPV
# [6] = viability loss in Vero cells – cytotoxicity control for Vif-APOBEC3G degradation inhibitor project, dose response (AID 1117358); format: functional; settings: Vero
# [7] = molecular target: Protein Tat (Human immunodeficiency virus type 1 group M subtype B (isolate HXB2)(HIV-1), UniProt P04608); format: functional;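 further: tat binding to TAR RNA read out by fluorescence polarization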
# Chain of Protein Tat (P04608 whole entry): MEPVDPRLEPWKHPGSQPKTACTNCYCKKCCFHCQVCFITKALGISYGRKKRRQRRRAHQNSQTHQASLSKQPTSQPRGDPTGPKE
# [8] = molecular target: Glutathione-S-transferase (Schistosoma japonicum, UniProt Q26513); experiment: GST-antibody interaction or FRET quenching – biochemical, TR-FRET, artefact control for Vif-APOBEC3G degradation inhibitor project, dose response (AID 1117362); format: functional
# Chain of Glutathione-S-transferase (Q26513 whole entry): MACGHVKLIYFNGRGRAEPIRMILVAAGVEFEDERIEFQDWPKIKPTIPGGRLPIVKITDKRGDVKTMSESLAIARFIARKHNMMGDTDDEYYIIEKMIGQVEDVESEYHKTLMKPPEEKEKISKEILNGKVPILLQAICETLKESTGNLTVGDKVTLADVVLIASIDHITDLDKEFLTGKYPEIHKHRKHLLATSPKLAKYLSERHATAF
# [9] = cells
# [10] = molecular target: T1, Oxysterols receptor LXR-beta (Homo sapiens, UniProt P55055); format: functional, cell-based;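 further: Cell-based luminescence dose-response assay of agonist activity at LXR, run as a confirmatory counterscreen to a daf-12 agonist screen; HEK293 cells with Gal4-LXR fusion and GAL4-driven luciferase reporter; agonist potency from rising luciferase signal of a Gal4-LXR reporter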
# T1 sequence (P55055 whole entry): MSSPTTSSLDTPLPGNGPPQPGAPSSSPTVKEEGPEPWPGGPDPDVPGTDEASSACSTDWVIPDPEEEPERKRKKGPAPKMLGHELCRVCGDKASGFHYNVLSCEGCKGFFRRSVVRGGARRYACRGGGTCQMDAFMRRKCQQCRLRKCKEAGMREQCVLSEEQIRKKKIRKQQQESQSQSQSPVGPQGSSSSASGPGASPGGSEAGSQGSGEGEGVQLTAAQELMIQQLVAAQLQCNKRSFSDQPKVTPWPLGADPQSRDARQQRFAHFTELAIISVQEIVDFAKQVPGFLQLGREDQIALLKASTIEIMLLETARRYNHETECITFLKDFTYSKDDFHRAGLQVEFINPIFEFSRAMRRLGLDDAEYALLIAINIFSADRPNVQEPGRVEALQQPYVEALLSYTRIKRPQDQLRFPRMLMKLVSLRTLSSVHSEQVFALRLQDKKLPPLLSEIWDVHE
# [11] = viability loss in HEK293 cells – cell-based, plate reader, cherry-picked samples, cytotoxicity control, dose response (AID 743446); format: functional
# [12] = molecular target: Paired box protein Pax-8 (Homo sapiens, UniProt Q06710); experiment: PAX8 transcriptional activity inhibition in RMG-I – RMG-I cells, luciferase, cherry-pick, dose response (AID 687027); format: functional, cell-based;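 further: luciferase reporter driven by Pax8 target thyroperoxidase promoter measured by SteadyGlo luminescence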
# Chain of Paired box protein Pax-8 (Q06710 whole entry): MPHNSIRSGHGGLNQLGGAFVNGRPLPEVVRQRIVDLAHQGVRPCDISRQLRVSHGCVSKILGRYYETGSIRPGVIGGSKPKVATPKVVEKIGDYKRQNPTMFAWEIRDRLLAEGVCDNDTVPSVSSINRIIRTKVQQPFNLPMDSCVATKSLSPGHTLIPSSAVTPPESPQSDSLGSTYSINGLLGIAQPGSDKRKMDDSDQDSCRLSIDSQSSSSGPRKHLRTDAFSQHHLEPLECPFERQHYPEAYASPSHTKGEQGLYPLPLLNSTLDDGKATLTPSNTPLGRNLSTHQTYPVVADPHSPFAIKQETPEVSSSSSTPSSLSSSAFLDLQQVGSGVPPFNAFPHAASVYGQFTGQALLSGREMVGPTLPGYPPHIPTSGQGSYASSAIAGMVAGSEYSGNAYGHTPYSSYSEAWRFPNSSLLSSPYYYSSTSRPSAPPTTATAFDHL
# [13] = toxicity toward HepG2 liver cells – cell-based, plate reader, cherry-pick, antagonist series, cytotoxicity control, dose response (AID 743416); format: functional
# [14] = A549 cell cytotoxicity, dose response, cytotoxicity control, plate reader, cherry-pick, antagonist series (AID 743412); format: functional, cell-based
# [15] = general cell-killing toxicity readout – plate reader, dry powder samples, cytotoxicity control for PAX8 inhibitor project, dose response (AID 743021); format: functional, cell-based
# [16] = blockers of bursicon-stimulated LGR2 cAMP reporter – cell-based, HEK293, CRE-luciferase reporter, cherry pick, set 2, dose response (AID 743343); format: functional;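 further: transfected cells were stimulated with diluted bursicon conditioned medium after compound addition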
# [17] = blockade of melanocortin 4 receptor signaling – cell-based, plate reader, cherry pick, counter-screen for LGR2 antagonist project, dose response (AID 743444); format: functional;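 further: transfected HEK 293 cells stimulated with alpha-MSH peptide; potency of inhibitors of the alpha-MSH evoked signal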
# [18] = HEK-293T viability loss after treatment – luminescence, T-cell screen hits, cytotoxicity control for TCR NF-kB inhibitor project, dose response (AID 489026); format: functional, cell-based;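 further: cells exposed to compound about 14 hours before the viability readout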
# [19] = molecular target: T2, Streptokinase A (Streptococcus pyogenes serotype M1, UniProt P10520); experiment: viability-normalized secreted streptokinase activity reduction – plasminogen activation absorbance, OD405, dose response (AID 1914); format: functional, Streptococcus pyogenes M1 GAS;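 further: secreted streptokinase activity via plasminogen activation per viability signal from cell pellet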
# T2 sequence (P10520 whole entry): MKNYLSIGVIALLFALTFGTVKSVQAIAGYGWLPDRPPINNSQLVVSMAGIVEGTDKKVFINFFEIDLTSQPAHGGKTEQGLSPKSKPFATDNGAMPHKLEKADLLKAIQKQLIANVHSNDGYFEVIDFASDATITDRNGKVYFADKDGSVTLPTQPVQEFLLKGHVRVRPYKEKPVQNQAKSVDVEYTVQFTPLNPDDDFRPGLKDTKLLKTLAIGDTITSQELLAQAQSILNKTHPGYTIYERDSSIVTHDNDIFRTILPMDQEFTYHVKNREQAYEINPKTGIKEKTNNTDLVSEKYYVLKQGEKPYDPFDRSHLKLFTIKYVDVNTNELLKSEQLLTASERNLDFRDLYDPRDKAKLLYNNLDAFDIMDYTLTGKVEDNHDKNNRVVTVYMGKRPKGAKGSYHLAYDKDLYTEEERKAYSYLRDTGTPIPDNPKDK
# [20] = test system: Streptococcus; experiment: GAS UMAA2166 growth inhibition – luminescence, BacTiterGlo, counter-screen for streptokinase expression inhibitor project, dose response (AID 1915); format: functional, organism-based;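 further: potency for reduction of bacterial viability or growth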
# [21] = test system: Streptococcus sp. 'group A'; experiment: Streptococcus pyogenes SK(-)GAS viability under kanamycin – luminescence, BacTiterGlo, confirmation, counter-screen for streptokinase expression inhibitor project, dose response (AID 1900); format: functional, organism-based
# [22] = Vero E6 cell cytotoxicity, dose response, cytotoxicity control for non-replicating M. tuberculosis project, secondary assay (AID 492998); format: functional, VeroE6; settings: Vero C1008
# [23] = cells; format: functional
# [24] = IC50 of Artemis nuclease activity blockers – biochemical, fluorescence intensity, dose response (AID 720701); format: functional;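 further: Artemis endonuclease enzyme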
# [25] = THP-1 cell cytotoxicity, dose response, cytotoxicity control for non-replicating M. tuberculosis project (AID 489025); format: functional
# [26] = test system: INS1; experiment: INS-1E survival protection against cytokine death – cell-based, luminescence, retest, dose response (AID 449756); format: functional; settings: Rattus norvegicus;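 further: cell death triggered by IL-1 beta plus TNF-alpha plus IFN-gamma mixture; protective hits raise ATP signal compared with cytokine alone wells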
# Chain of Cytochrome P450 2C9 (P11712 whole entry): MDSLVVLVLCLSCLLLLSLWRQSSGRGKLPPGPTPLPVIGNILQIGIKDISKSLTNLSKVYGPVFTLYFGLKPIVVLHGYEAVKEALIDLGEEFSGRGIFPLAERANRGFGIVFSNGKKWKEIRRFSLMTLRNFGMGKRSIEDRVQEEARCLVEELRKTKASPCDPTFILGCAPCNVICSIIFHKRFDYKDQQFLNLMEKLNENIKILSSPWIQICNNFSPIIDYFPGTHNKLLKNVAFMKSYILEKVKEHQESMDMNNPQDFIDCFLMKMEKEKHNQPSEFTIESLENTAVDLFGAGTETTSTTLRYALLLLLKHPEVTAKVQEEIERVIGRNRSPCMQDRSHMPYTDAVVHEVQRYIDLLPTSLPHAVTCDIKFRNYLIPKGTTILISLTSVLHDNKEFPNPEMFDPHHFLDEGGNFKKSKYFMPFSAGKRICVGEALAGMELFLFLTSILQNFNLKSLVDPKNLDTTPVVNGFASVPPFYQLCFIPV
# Chain of Cytochrome P450 2D6 (P10635 whole entry): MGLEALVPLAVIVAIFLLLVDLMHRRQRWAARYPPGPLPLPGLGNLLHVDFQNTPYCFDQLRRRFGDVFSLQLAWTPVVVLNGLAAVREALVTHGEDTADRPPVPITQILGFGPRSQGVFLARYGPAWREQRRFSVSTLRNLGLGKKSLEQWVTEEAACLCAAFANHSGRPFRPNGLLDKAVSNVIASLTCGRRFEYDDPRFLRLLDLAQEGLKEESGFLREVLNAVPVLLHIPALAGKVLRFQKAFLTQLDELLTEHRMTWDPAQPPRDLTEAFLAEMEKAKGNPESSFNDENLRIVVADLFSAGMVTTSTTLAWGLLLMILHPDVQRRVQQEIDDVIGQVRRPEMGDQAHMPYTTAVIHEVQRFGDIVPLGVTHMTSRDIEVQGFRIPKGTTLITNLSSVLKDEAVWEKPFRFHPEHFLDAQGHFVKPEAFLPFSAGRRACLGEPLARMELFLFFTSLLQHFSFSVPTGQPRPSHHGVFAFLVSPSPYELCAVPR
compound,measurement,setting,value
O=C(Nc1cccc2ccccc12)c1ccccc1,AC50,[1],0.00251 µM (inconclusive)
same,AC50,[2],inconclusive
same,IC50,[3],> 123 µM (inactive)
same,IC50,[4],> 123 µM (inactive)
same,AC50,[5],2.51 µM (inconclusive)
CCCCn1cnc2cc(NCc3ccncc3)ccc21,CC50,[6],> 40 µM (active)
same,IC50,[7],> 100 µM (active)
same,IC50,[8],> 100 µM (active)
Cc1ccnc(NC(=O)Nc2cccc(F)c2)c1,EC50,[9],> 67.5 µM (inactive)
same,EC50,[10],> 67.5 µM (inactive)
c1cc2c(cc1C1=NN=C(NC3CC3)SC1)OCCO2,AC50,[11],4.07 µM (active)
same,AC50,[12],2.14 µM (active)
same,AC50,[13],6.46 µM (active)
same,AC50,[14],5.39 µM (active)
same,AC50,[15],7.92 µM (active)
same,AC50,[16],0.276 µM (active)
same,AC50,[17],0.251 µM (active)
same,IC50,[18],> 80 µM (inactive)
Cc1noc(/C=C/c2ccco2)c1S(=O)(=O)N1CCC(C(=O)NCc2ccco2)CC1,CC50,[6],> 40 µM (active)
Cc1cc(C)n(-c2nc(NCCCO)c3c4c(sc3n2)CCCC4)n1,EC50,[19],> 150 µM (not active)
same,EC50,[20],> 150 µM (not active)
same,EC50,[21],25.9 µM (active)
same,CC50,[22],> 20 µM (active)
same,IC50,[23],5.54 µM (active)
same,IC50,[24],17.9 µM (active)
same,CC50,[25],38.6 µM (active)
same,AC50,[26],5.71 µM (active)
CC(C)c1ccc(C=NNc2ccc([N+](=O)[O-])cn2)cc1,EC50,[9],> 67.6 µM (inactive)
same,EC50,[10],> 67.6 µM (inactive)
